Source: BigSolDB 2.1

Cc1ccc(C(=O)O)cc1
solubility (mole fraction)
Details	278.15 K	283.15 K	288.15 K	293.15 K	298.15 K	303.15 K	308.15 K	313.15 K	318.15 K	323.15 K
in acetone	0.0354	0.041	0.0469	0.0544	0.062	0.0728	0.0838	0.0943	0.11	0.125
in acetonitrile	0.00596	0.0068	0.00776	0.0087	0.00976	0.0112	0.0127	0.0146	0.0163	0.0187
in ethanol	0.0272	0.0308	0.0346	0.0396	0.0442	0.05	0.0549	0.0603	0.0684	0.0765
in isopropanol	0.0397	0.0437	0.0488	0.0528	0.0588	0.0648	0.0715	0.0779	0.0868	0.0959
in methanol	0.0354	0.041	0.0485	0.0568	0.0636	0.0744	0.0865	0.0999	0.115	0.132
in n-butanol	0.0359	0.0396	0.0444	0.051	0.0578	0.0651	0.0735	0.0836	0.094	0.105
